Biological target: Pyruvate kinase PKLR (Homo sapiens) (UniProt P30613)
Assay: Inhibition of human erythrocytes pyruvate kinase

Pyruvate kinase PKLR (Homo sapiens), sequence (P30613 whole entry, looked up): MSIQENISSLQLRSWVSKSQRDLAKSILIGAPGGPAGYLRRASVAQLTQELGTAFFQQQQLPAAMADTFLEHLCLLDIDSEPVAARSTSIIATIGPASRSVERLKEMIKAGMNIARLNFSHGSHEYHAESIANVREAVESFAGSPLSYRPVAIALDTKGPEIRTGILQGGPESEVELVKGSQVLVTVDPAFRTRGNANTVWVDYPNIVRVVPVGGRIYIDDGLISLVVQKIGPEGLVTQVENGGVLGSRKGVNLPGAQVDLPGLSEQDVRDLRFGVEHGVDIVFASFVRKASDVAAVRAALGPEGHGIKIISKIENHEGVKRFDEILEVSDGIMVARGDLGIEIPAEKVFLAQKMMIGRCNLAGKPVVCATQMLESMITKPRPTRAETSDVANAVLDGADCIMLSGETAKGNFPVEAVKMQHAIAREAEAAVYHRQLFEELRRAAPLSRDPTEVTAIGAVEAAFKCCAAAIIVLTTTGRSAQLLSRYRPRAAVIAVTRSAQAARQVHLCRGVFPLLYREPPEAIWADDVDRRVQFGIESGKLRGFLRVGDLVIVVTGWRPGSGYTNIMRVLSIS

IC50: 8 µM
SMILES: O=C(O)c1ccc(SC2=NS(=O)(=O)c3ccccc32)cc1

Source: BindingDB's records for PubMed 34726055 (Central University of Punjab, 2022)
